Tests used:
Experiment in all cases: Test D preemergence
Type in all cases: in vivo
Conditions in all cases: scale 0 to 100
[1] = tested on: Galium (catchweed bedstraw, Galium aparine)
Procedure, shortened: (§1)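 Seeds of the weed and crop species were sown in silt loam soil and treated preemergence with compounds formulated in a non-phytotoxic solvent mixture containing surfactant. After about 21 d in a controlled growth environment, plants were visually rated against untreated controls on a 0–100 scale (0 = no effect, 100 = complete control).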

[2] = tested on: oilseed rape (Brassica napus)
Procedure, shortened: as §1

[3] = tested on: windgrass (Apera spica-venti)
Procedure, shortened: as §1

[4] = tested on: blackgrass (Alopecurus myosuroides)
Procedure, shortened: as §1

[5] = tested on: buckwheat, wild (wild buckwheat, Polygonum convolvulus)
Procedure, shortened: as §1

[6] = tested on: field violet (Viola arvensis)
Procedure, shortened: as §1

[7] = tested on: bluegrass (annual bluegrass, Poa annua)
Procedure, shortened: as §1

[8] = tested on: Kochia (Kochia scoparia)
Procedure, shortened: as §1

[9] = tested on: oat, wild (wild oat, Avena fatua)
Procedure, shortened: as §1

[10] = tested on: bromegrass, downy (downy bromegrass, Bromus tectorum)
Procedure, shortened: as §1

[11] = tested on: barley, winter (winter barley Hordeum vulgare)
Procedure, shortened: as §1

[12] = tested on: chickweed (common chickweed, Stellaria media)
Procedure, shortened: as §1

[13] = tested on: Russian thistle (Salsola kali)
Procedure, shortened: as §1

[14] = tested on: chamomile (scentless chamomile, Matricaria inodora)
Procedure, shortened: as §1

[15] = tested on: foxtail, green (green foxtail, Setaria viridis)
Procedure, shortened: as §1

[16] = tested on: barley, spring (spring barley, Hordeum vulgare)
Procedure, shortened: as §1

[17] = tested on: ryegrass, Italian (Italian ryegrass, Lolium multiflorum)
Procedure, shortened: as §1

[18] = tested on: canarygrass (littleseed canarygrass, Phalaris minor)
Procedure, shortened: as §1

[19] = tested on: wheat, spring (spring wheat, Triticum aestivum)
Procedure, shortened: as §1

[20] = tested on: mustard, wild (wild mustard, Sinapis arvensis)
Procedure, shortened: as §1

[21] = tested on: wheat, winter (winter wheat, Triticum aestivum)
Procedure, shortened: as §1

[22] = tested on: field poppy (Papaver rhoeas)
Procedure, shortened: as §1

Question: With `CN1CC(c2cccc(C(F)(F)F)c2)C(C(=O)Nc2cccc(F)c2F)C1=O` (stereo not shown) [Compound 636] as the compound, how does the “Plant response rating: Galium” value ([1]; 31 g ai/ha) read?
Answer: 0

Question: And the “Plant response rating: Galium” value ([1]; 62 g ai/ha)?
Answer: 15

Question: And the “Plant response rating: Galium” value ([1]; 125 g ai/ha)?
Answer: 30

Question: And the “Plant response rating: Galium” value ([1]; 250 g ai/ha)?
Answer: 60

Question: What about the “Plant response rating: Oilseed Rape” value ([2]; 31 g ai/ha) of the same compound?
Answer: 10

Question: What about the “Plant response rating: Oilseed Rape” value ([2]; 62 g ai/ha) of the same compound?
Answer: 30

Question: What about the “Plant response rating: Oilseed Rape” value ([2]; 125 g ai/ha) of the same compound?
Answer: 60

Question: What about the “Plant response rating: Oilseed Rape” value ([2]; 250 g ai/ha) of the same compound?
Answer: 65

Question: And the “Plant response rating: Windgrass” value ([3]; 31 g ai/ha)?
Answer: 85

Question: And the “Plant response rating: Windgrass” value ([3]; 62 g ai/ha)?
Answer: 95

Question: And the “Plant response rating: Windgrass” value ([3]; 125 g ai/ha)?
Answer: 95

Question: And the “Plant response rating: Windgrass” value ([3]; 250 g ai/ha)?
Answer: 98

Question: And the “Plant response rating: Blackgrass” value ([4]; 31 g ai/ha)?
Answer: 25

Question: And the “Plant response rating: Blackgrass” value ([4]; 62 g ai/ha)?
Answer: 30

Question: And the “Plant response rating: Blackgrass” value ([4]; 125 g ai/ha)?
Answer: 60

Question: And the “Plant response rating: Blackgrass” value ([4]; 250 g ai/ha)?
Answer: 75

Question: And the “Plant response rating: Buckwheat, Wild” value ([5]; 31 g ai/ha)?
Answer: 5

Question: What about the “Plant response rating: Buckwheat, Wild” value ([5]; 62 g ai/ha) of the same compound?
Answer: 75

Question: What about the “Plant response rating: Buckwheat, Wild” value ([5]; 125 g ai/ha) of the same compound?
Answer: 90

Question: And the “Plant response rating: Buckwheat, Wild” value ([5]; 250 g ai/ha)?
Answer: 80

Question: What about the “Plant response rating: Field Violet” value ([6]; 31 g ai/ha) of the same compound?
Answer: 0

Question: What about the “Plant response rating: Field Violet” value ([6]; 62 g ai/ha) of the same compound?
Answer: 0

Question: And the “Plant response rating: Field Violet” value ([6]; 125 g ai/ha)?
Answer: 35

Question: What about the “Plant response rating: Field Violet” value ([6]; 250 g ai/ha) of the same compound?
Answer: 85

Question: What about the “Plant response rating: Bluegrass” value ([7]; 31 g ai/ha) of the same compound?
Answer: 35

Question: And the “Plant response rating: Bluegrass” value ([7]; 62 g ai/ha)?
Answer: 95

Question: And the “Plant response rating: Bluegrass” value ([7]; 125 g ai/ha)?
Answer: 90

Question: What about the “Plant response rating: Bluegrass” value ([7]; 250 g ai/ha) of the same compound?
Answer: 100

Question: And the “Plant response rating: Kochia” value ([8]; 31 g ai/ha)?
Answer: 5

Question: What about the “Plant response rating: Kochia” value ([8]; 62 g ai/ha) of the same compound?
Answer: 25

Question: What about the “Plant response rating: Kochia” value ([8]; 125 g ai/ha) of the same compound?
Answer: 75

Question: And the “Plant response rating: Kochia” value ([8]; 250 g ai/ha)?
Answer: 75

Question: And the “Plant response rating: Oat, Wild” value ([9]; 31 g ai/ha)?
Answer: 5

Question: And the “Plant response rating: Oat, Wild” value ([9]; 62 g ai/ha)?
Answer: 30

Question: And the “Plant response rating: Oat, Wild” value ([9]; 125 g ai/ha)?
Answer: 80

Question: And the “Plant response rating: Oat, Wild” value ([9]; 250 g ai/ha)?
Answer: 85

Question: And the “Plant response rating: Bromegrass, Downy” value ([10]; 31 g ai/ha)?
Answer: 10

Question: And the “Plant response rating: Bromegrass, Downy” value ([10]; 62 g ai/ha)?
Answer: 20

Question: And the “Plant response rating: Bromegrass, Downy” value ([10]; 125 g ai/ha)?
Answer: 55

Question: What about the “Plant response rating: Bromegrass, Downy” value ([10]; 250 g ai/ha) of the same compound?
Answer: 80

Question: And the “Plant response rating: Barley, Winter” value ([11]; 31 g ai/ha)?
Answer: 5

Question: And the “Plant response rating: Barley, Winter” value ([11]; 62 g ai/ha)?
Answer: 45

Question: And the “Plant response rating: Barley, Winter” value ([11]; 125 g ai/ha)?
Answer: 55

Question: And the “Plant response rating: Barley, Winter” value ([11]; 250 g ai/ha)?
Answer: 80

Question: What about the “Plant response rating: Chickweed” value ([12]; 31 g ai/ha) of the same compound?
Answer: 85

Question: What about the “Plant response rating: Chickweed” value ([12]; 62 g ai/ha) of the same compound?
Answer: 85

Question: What about the “Plant response rating: Chickweed” value ([12]; 125 g ai/ha) of the same compound?
Answer: 90

Question: And the “Plant response rating: Chickweed” value ([12]; 250 g ai/ha)?
Answer: 90

Question: What about the “Plant response rating: Russian Thistle” value ([13]; 31 g ai/ha) of the same compound?
Answer: 0

Question: And the “Plant response rating: Russian Thistle” value ([13]; 62 g ai/ha)?
Answer: 40

Question: And the “Plant response rating: Russian Thistle” value ([13]; 125 g ai/ha)?
Answer: 50

Question: What about the “Plant response rating: Russian Thistle” value ([13]; 250 g ai/ha) of the same compound?
Answer: 60

Question: And the “Plant response rating: Chamomile” value ([14]; 31 g ai/ha)?
Answer: 90

Question: What about the “Plant response rating: Chamomile” value ([14]; 62 g ai/ha) of the same compound?
Answer: 100

Question: What about the “Plant response rating: Chamomile” value ([14]; 125 g ai/ha) of the same compound?
Answer: 100

Question: What about the “Plant response rating: Chamomile” value ([14]; 250 g ai/ha) of the same compound?
Answer: 100

Question: And the “Plant response rating: Foxtail, Green” value ([15]; 31 g ai/ha)?
Answer: 100

Question: And the “Plant response rating: Foxtail, Green” value ([15]; 62 g ai/ha)?
Answer: 100

Question: What about the “Plant response rating: Foxtail, Green” value ([15]; 125 g ai/ha) of the same compound?
Answer: 100

Question: And the “Plant response rating: Foxtail, Green” value ([15]; 250 g ai/ha)?
Answer: 100

Question: What about the “Plant response rating: Barley, Spring” value ([16]; 31 g ai/ha) of the same compound?
Answer: 35

Question: And the “Plant response rating: Barley, Spring” value ([16]; 62 g ai/ha)?
Answer: 55

Question: And the “Plant response rating: Barley, Spring” value ([16]; 125 g ai/ha)?
Answer: 60

Question: What about the “Plant response rating: Barley, Spring” value ([16]; 250 g ai/ha) of the same compound?
Answer: 75

Question: And the “Plant response rating: Ryegrass, Italian” value ([17]; 31 g ai/ha)?
Answer: 15

Question: What about the “Plant response rating: Ryegrass, Italian” value ([17]; 62 g ai/ha) of the same compound?
Answer: 40

Question: And the “Plant response rating: Ryegrass, Italian” value ([17]; 125 g ai/ha)?
Answer: 65

Question: And the “Plant response rating: Ryegrass, Italian” value ([17]; 250 g ai/ha)?
Answer: 80

Question: And the “Plant response rating: Canarygrass” value ([18]; 31 g ai/ha)?
Answer: 65

Question: What about the “Plant response rating: Canarygrass” value ([18]; 62 g ai/ha) of the same compound?
Answer: 85

Question: And the “Plant response rating: Canarygrass” value ([18]; 125 g ai/ha)?
Answer: 90

Question: What about the “Plant response rating: Canarygrass” value ([18]; 250 g ai/ha) of the same compound?
Answer: 95

Question: What about the “Plant response rating: Wheat, Spring” value ([19]; 31 g ai/ha) of the same compound?
Answer: 20

Question: What about the “Plant response rating: Wheat, Spring” value ([19]; 62 g ai/ha) of the same compound?
Answer: 40

Question: And the “Plant response rating: Wheat, Spring” value ([19]; 125 g ai/ha)?
Answer: 45

Question: What about the “Plant response rating: Wheat, Spring” value ([19]; 250 g ai/ha) of the same compound?
Answer: 80

Question: And the “Plant response rating: Mustard, Wild” value ([20]; 31 g ai/ha)?
Answer: 0

Question: And the “Plant response rating: Mustard, Wild” value ([20]; 62 g ai/ha)?
Answer: 15

Question: And the “Plant response rating: Mustard, Wild” value ([20]; 125 g ai/ha)?
Answer: 15

Question: And the “Plant response rating: Mustard, Wild” value ([20]; 250 g ai/ha)?
Answer: 85

Question: What about the “Plant response rating: Wheat, Winter” value ([21]; 31 g ai/ha) of the same compound?
Answer: 5

Question: What about the “Plant response rating: Wheat, Winter” value ([21]; 62 g ai/ha) of the same compound?
Answer: 60

Question: What about the “Plant response rating: Wheat, Winter” value ([21]; 125 g ai/ha) of the same compound?
Answer: 70

Question: And the “Plant response rating: Wheat, Winter” value ([21]; 250 g ai/ha)?
Answer: 65

Question: What about the “Plant response rating: Field Poppy” value ([22]; 31 g ai/ha) of the same compound?
Answer: 90

Question: And the “Plant response rating: Field Poppy” value ([22]; 62 g ai/ha)?
Answer: 95

Question: And the “Plant response rating: Field Poppy” value ([22]; 125 g ai/ha)?
Answer: 100

Question: And the “Plant response rating: Field Poppy” value ([22]; 250 g ai/ha)?
Answer: 100

Reference: patent US12077503B2, “Substituted cyclic amides and their use as herbicides” (FMC CORPORATION, priority 2015, dated 2024)
